Experimental data: ChEMBL document CHEMBL1137385, “Macrocyclic inhibitors of beta-secretase: functional activity in an animal model” (J Med Chem, 2006)

Legend:
[1] = target: T1, Beta-secretase 1 (Homo sapiens, UniProt P56817); assay: Inhibition of BACE1 at pH 4.5
[2] = Apparent permeability in porcine LLC-PK1 cells; type: ADME, cell-based, Sus scrofa; conditions: pig
[3] = target: T1, Beta-secretase 1; assay: Inhibition of BACE1 in HEK293T cells; type: cell-based, HEK-293T
[4] = system: Mus musculus; assay: Drug level in brain of C57/BL6 APP-YAC mouse model at 100 mg/kg, iv; type: ADME, organism-based, C57Bl/6; set-up: dose 100 mg/kg, route intravenous; conditions: in vivo, read-out: Drug uptake
[5] = system: Mus musculus; assay: Ratio of drug level in brain against plasma in C57/BL6 APP-YAC mouse model at 100 mg/kg, iv; type: ADME, organism-based, C57Bl/6; set-up: dose 100 mg/kg, route intravenous

T1 sequence (P56817 whole entry): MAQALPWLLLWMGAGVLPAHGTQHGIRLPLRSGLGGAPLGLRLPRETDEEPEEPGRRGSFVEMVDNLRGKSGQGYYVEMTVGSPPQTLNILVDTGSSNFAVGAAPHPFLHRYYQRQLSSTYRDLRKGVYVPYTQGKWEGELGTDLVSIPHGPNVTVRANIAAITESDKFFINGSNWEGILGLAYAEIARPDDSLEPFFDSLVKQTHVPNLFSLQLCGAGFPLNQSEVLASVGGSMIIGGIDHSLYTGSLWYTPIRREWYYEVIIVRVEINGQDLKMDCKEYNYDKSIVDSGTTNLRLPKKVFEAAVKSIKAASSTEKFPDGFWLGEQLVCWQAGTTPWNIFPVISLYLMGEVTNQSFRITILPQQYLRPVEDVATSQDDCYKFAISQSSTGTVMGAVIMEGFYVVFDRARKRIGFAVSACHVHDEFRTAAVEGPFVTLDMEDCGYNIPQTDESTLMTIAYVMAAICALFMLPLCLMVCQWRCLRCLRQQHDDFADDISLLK

Structure (SMILES) | IC50 [1] | concentration [4] | BPR [5] | Papp [2] | IC50 [3]
CC[C@H](NCC1Cc2cccc(c2)CCCCc2cc(cc(N(C)S(C)(=O)=O)c2)C(=O)N1)C(=O)NCC(C)C (stereo partly drawn) | 90 nM |  |  | 19 ×10⁻⁶ cm/s | 1140 nM
CC[C@H](NCC1Cc2cccc(c2)OCCNC(=O)c2cc(cc(N(C)S(C)(=O)=O)c2)C(=O)N1)C(=O)NCC(C)C (stereo partly drawn) | 32 nM |  |  | 0.5 ×10⁻⁶ cm/s | 5400 nM

More lines, main results first:

IC50 [1] | concentration [4] | BPR [5] | Structure (SMILES) | Papp [2] | IC50 [3]
1100 nM |  |  | CC[C@H](NCC1Cc2cccc(c2)CCCCCc2cc(cc(N(C)S(C)(=O)=O)c2)C(=O)N1)C(=O)NCC(C)C (stereo partly drawn) |  | 
> 100000 nM |  |  | CNC(=O)c1cc(C(=O)NC(CO)Cc2cccc(OC)c2)cc(N(C)S(C)(=O)=O)c1 (stereo not drawn) |  | 
4 nM | 1100 nM | 20% | CCCC[C@H](NC[C@@H]1Cc2cccc(c2)CCCCc2cc(cc(N(CCC)S(C)(=O)=O)c2)C(=O)N1)C(=O)NCC(C)C | 13 ×10⁻⁶ cm/s | 76 nM
